Numbers after ± are expanded uncertainties.
Conditions: Liquid

Row | SMILES | vapor or sublimation pressure (337.84 K) | vapor or sublimation pressure (363.41 K)
1 | CO [methanol] | 101.32 ± 1.7 kPa | –
2 | COC(=O)OC [dimethyl carbonate] | – | 101.32 ± 1.7 kPa

Reference: the NIST ThermoML archive (doi:10.1021/je200697m)
